Results from patent publication US4562199A, “Imidazole derivatives, compositions and use” (priority 1983, dated 1985).
Where a name gives a salt, the structure may show the parent alone.

Target: T1, Thromboxane A2 Synthetase (Equus caballus, UniProt A0A9L0T8T9)
T1 construct: [1-14C]arachidonic acid substrate, TXB2 by TLC
T1 sequence (A0A9L0T8T9 2-534): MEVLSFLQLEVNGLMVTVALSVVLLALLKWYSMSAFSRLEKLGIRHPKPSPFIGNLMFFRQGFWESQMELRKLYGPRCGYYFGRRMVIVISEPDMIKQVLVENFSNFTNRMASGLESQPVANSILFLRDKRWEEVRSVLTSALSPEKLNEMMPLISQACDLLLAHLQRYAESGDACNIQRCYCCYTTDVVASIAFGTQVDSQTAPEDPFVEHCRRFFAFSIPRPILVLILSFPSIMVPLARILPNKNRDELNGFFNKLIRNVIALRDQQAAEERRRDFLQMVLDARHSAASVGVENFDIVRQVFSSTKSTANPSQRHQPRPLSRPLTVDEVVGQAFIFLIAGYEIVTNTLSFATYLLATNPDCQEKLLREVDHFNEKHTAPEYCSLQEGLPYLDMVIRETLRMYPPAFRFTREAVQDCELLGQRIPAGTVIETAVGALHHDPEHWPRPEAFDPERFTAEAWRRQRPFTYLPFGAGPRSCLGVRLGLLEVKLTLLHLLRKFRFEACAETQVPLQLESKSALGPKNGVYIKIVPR
Assay: Determination of Thromboxane A2 Synthetase Inhibitory Activity
Format: biochemical
Conditions: lysed platelets from horse PRP; [1-14C]-arachidonic acid; 3 min at 37° C.; Tris buffer pH 7.5; read-out: ED50 (concentration of active compound required to reduce the enzyme activity by 50%) (converted)
Description: The active compound was dissolved in a suitable solvent at a concentration of 5 mg/ml, and 20 μl added to 0.8 ml of 100 mM Tris buffer (pH 7.5).
The platelets from 5 ml of horse PRP were centrifuged and resuspended in 100 μl of Tris buffer. After lysis by sonication or freeze thawing, the platelet suspension was added to the solution of active compound and equilibrated for 5 min at room temperature. Then 300 ng (50 nCi) of [1-^14 -C]-arachidonic acid, dissolved in 100 μl Tris buffer, was added and the mixture incubated for 3 min at 37° C.
The reaction was stopped with 50 μl 2N HCl and the product extracted with 1.5 volumes ethyl acetate by whirling for 30 seconds. 1 ml saturated NaCl was added to the aqueous phase to prevent emulsion formation. The organic layer was removed, dried under N2 and the products redissolved in 50 μl chloroform/methanol mixture for quantitative spotting onto a TLC plate, and subsequent analysis.
The plate was developed in chloroform, methanol, acetic acid, water (90:8:1:0.8), dried and then visualised by autoradiography for 2-3 days.
The concentration of active compound required to reduce the enzyme activity by 50% (ED50) was established.

Point of comparison: `O=C(O)C=Cc1ccc(Cn2ccnc2)c(Br)c1` [Example 6, 3-[3-Bromo-4-(imidazol-1-ylmethyl)phenyl]prop-2-enoic acid hydrochloride hydrate], IC50 0.0415 µM. Against it:
- CCOC(=O)/C=C/c1ccc(Cn2ccnc2)c(Cl)c1 [Example 2, Ethyl (E)-3-[3-chloro-4-(imidazol-1-ylmethyl)phenyl]prop-2-enoate] — 41-fold higher, 1.72 µM
- O=C(O)c1ccc(C=CCn2ccnc2)cc1Cl [Example 10, 1-[3-(4-Carboxy-3-chlorophenyl)prop-2-enyl]imidazole hydrochloride hemihydrate] — 32-fold higher, 1.33 µM
- O=C(O)c1ccc(Cn2ccnc2)c(Cl)c1 [Example 1, 1-(4-Carboxy-2-chlorobenzyl)imidazole hydrochloride] — 580-fold higher, 24.2 µM
- O=C(O)/C=C/c1ccc(Cn2ccnc2)c(Cl)c1 [Example 3, (E)-3-[3-Chloro-4-(imidazol-1-ylmethyl)phenyl]prop-2-enoic acid hydrochloride] — 4-fold higher, 0.167 µM
- O=C(O)CCc1ccc(Cn2ccnc2)c(Cl)c1 [Example 4, 3-[3-Chloro-4-(imidazol-1-ylmethyl)phenyl]propanoic acid hydrochloride] — 6.4-fold higher, 0.266 µM
